Measurements published in ChEMBL document CHEMBL1201862, “PubChem BioAssay data set” (2004).
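How tested: cells in 96-well plates exposed to compound for 48 hours at five concentrations. Abbreviation: GI50, concentration required for 50% inhibition of growth.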 Active and inactive are the calls of the source. Rule as the data show it: active = GI50 up to about 1.1 µM and inactive = higher.

What was measured:
Assay in all cases: inhibition of tumour cell growth, NCI panel, 48 h
OVCAR-3 = test system: OVCAR-3
ACHN = test system: ACHN
UO-31 = test system: UO-31
PC-3 = test system: PC-3
SK-MEL-2 = test system: SK-MEL-2
RPMI-8226 = test system: RPMI-8226
SF-295 = test system: SF-295
HCT-116 = test system: HCT-116
MOLT-4 = test system: MOLT-4
T47D = test system: T47D
MDA-N = test system: MDA-N
MCF7 = test system: MCF7
K562 = test system: K562
786-0 = test system: 786-0
SF-539 = test system: SF-539
SN12C = test system: SN12C
CCRF-CEM = test system: CCRF-CEM
HL-60 = test system: HL-60
NCI-H226 = test system: NCI-H226

Measured: GI50

C=C[C@@]1(C)CC[C@@H]2[C@@]3(C1)O[C@H]3CC1[C@](C)(C(=O)OC)CCC[C@@]12C (stereo partly specified)
inactive: OVCAR-3 17 µM | ACHN 16.1 µM | UO-31 17.9 µM | PC-3 30.4 µM | SK-MEL-2 18.9 µM | RPMI-8226 27 µM | SF-295 15 µM | HCT-116 13.7 µM | MOLT-4 20 µM | T47D 20.7 µM | MDA-N 22.1 µM | MCF7 15.6 µM | K562 32.8 µM | 786-0 20.3 µM

CC(C)Cn1cnc2c(SCc3ccc(Cl)cc3Cl)nc(N)nc21
inactive: OVCAR-3 48.5 µM | ACHN 20.6 µM | UO-31 23.3 µM | PC-3 16.5 µM | SF-539 15.8 µM | SK-MEL-2 32.4 µM | RPMI-8226 10.1 µM | SN12C 47.3 µM | SF-295 23.3 µM | HCT-116 23.2 µM | MOLT-4 7.57 µM | T47D 13.5 µM | MDA-N 41.1 µM | MCF7 18.3 µM | K562 11.7 µM | 786-0 23.9 µM

C1CSCCSS[C@@H]2CCCCC2SC1 (stereo partly specified)
inactive: CCRF-CEM > 100 µM | OVCAR-3 > 100 µM | UO-31 78.9 µM | PC-3 > 100 µM | SF-539 > 100 µM | SN12C > 100 µM | SF-295 > 100 µM | HCT-116 81.8 µM | MOLT-4 > 100 µM | HL-60 56.6 µM | T47D > 100 µM | MDA-N > 100 µM | MCF7 > 100 µM | K562 > 100 µM | 786-0 > 100 µM

COc1ccc(C2=C(Cl)C(=O)O/C2=C\c2ccc(OC)c(Br)c2)cc1Cl
inactive: CCRF-CEM 28.1 µM | OVCAR-3 23 µM | ACHN 16.3 µM | UO-31 53.1 µM | PC-3 39.1 µM | SF-539 16.1 µM | SK-MEL-2 25.2 µM | RPMI-8226 > 100 µM | SF-295 15.7 µM | HCT-116 23.5 µM | MOLT-4 41.5 µM | HL-60 > 100 µM | T47D 58.9 µM | MDA-N > 100 µM | MCF7 14.6 µM | K562 35.2 µM | 786-0 17.2 µM

COc1cc2c3c(n(C)c(=O)c2cc1OC)-c1cc2c(cc1/C3=C\CCCCl)OCO2
inactive: CCRF-CEM 8.95 µM | ACHN 29.7 µM | UO-31 53.8 µM | PC-3 > 100 µM | SK-MEL-2 25.5 µM | SF-295 19.9 µM | MOLT-4 6.68 µM | HL-60 55.1 µM | T47D 30.3 µM | MDA-N > 100 µM | MCF7 42 µM | K562 23.2 µM | 786-0 16.7 µM

Cc1nnc2ccccc2c1O
inactive: OVCAR-3 > 100 µM | ACHN > 100 µM | UO-31 > 100 µM | PC-3 > 100 µM | SF-539 > 100 µM | SK-MEL-2 > 100 µM | RPMI-8226 > 100 µM | SN12C > 100 µM | SF-295 > 100 µM | HCT-116 > 100 µM | MOLT-4 6.34 µM | T47D > 100 µM | MDA-N > 100 µM | MCF7 > 100 µM | K562 2.52 µM | NCI-H226 > 100 µM | 786-0 > 100 µM

CCOC(=O)c1nc2ccc(C(F)(F)F)cc2nc1NCc1ccc(OC)cc1
inactive: CCRF-CEM > 100 µM | OVCAR-3 71.8 µM | ACHN 92.5 µM | UO-31 > 100 µM | PC-3 56.6 µM | SF-539 > 100 µM | SK-MEL-2 97.9 µM | RPMI-8226 69.8 µM | SF-295 > 100 µM | HCT-116 53.1 µM | MOLT-4 31.3 µM | T47D 80.7 µM | MDA-N > 100 µM | MCF7 43.2 µM | K562 39.5 µM | NCI-H226 > 100 µM | 786-0 > 100 µM

O=Cc1cc(C(=O)OCc2ccccc2)n(S(=O)(=O)c2ccccc2)c1
inactive: CCRF-CEM 8.07 µM | OVCAR-3 18.7 µM | ACHN 15.6 µM | UO-31 12.6 µM | PC-3 16.6 µM | SF-539 12.7 µM | SK-MEL-2 16.8 µM | SN12C 26.3 µM | SF-295 14.4 µM | HCT-116 7.5 µM | MOLT-4 23 µM | HL-60 5.75 µM | T47D 30.5 µM | MDA-N 5.31 µM | MCF7 11.7 µM | K562 4.51 µM | 786-0 30.7 µM

CCc1ccc2c(c1)/C(=C1/Nc3ccccc3C1=O)C(=O)N2
inactive: CCRF-CEM 36.1 µM | OVCAR-3 20.6 µM | ACHN 5.66 µM | UO-31 7.38 µM | PC-3 14.5 µM | SK-MEL-2 17.1 µM | RPMI-8226 > 100 µM | SN12C 68.2 µM | SF-295 20.2 µM | HCT-116 7.43 µM | MOLT-4 19.2 µM | T47D 4.65 µM | MDA-N 34.5 µM | MCF7 1.78 µM | K562 22.3 µM | NCI-H226 18.7 µM | 786-0 5.78 µM

O=[N+]([O-])C(=C(N1CCOCC1)N1CCOCC1)/C(Cl)=C(\Cl)[N+](=O)[O-]
inactive: CCRF-CEM 2.65 µM | OVCAR-3 4.54 µM | ACHN 6.31 µM | UO-31 6.71 µM | PC-3 16.4 µM | SF-539 11.6 µM | SK-MEL-2 15.8 µM | RPMI-8226 2.31 µM | SN12C 2.01 µM | SF-295 18 µM | HCT-116 2 µM | MOLT-4 17.2 µM | T47D 1.96 µM | MDA-N 9.75 µM | MCF7 2.67 µM | K562 3.69 µM | NCI-H226 47 µM | 786-0 3.69 µM

O=C(NC/C(Cl)=C/Cl)Nc1c2ccccc2nc2ccccc12
inactive: OVCAR-3 44.5 µM | ACHN 80.5 µM | UO-31 > 100 µM | PC-3 > 100 µM | SF-539 25.1 µM | SK-MEL-2 > 100 µM | RPMI-8226 53.3 µM | SN12C 69.7 µM | SF-295 > 100 µM | HCT-116 24.3 µM | MOLT-4 29.3 µM | T47D 71.1 µM | MDA-N > 100 µM | MCF7 > 100 µM | NCI-H226 31.8 µM | 786-0 33.3 µM

C[Si](C)(C)c1ccc(-c2c3ccc(-c4cc(Br)cc(Br)c4)nc3nc3nc(-c4cc(Br)cc(Br)c4)ccc23)cc1
inactive: OVCAR-3 > 100 µM | ACHN > 100 µM | UO-31 > 100 µM | PC-3 > 100 µM | SK-MEL-2 > 100 µM | RPMI-8226 > 100 µM | SN12C > 100 µM | SF-295 > 100 µM | HCT-116 > 100 µM | T47D > 100 µM | MDA-N > 100 µM | MCF7 > 100 µM | NCI-H226 > 100 µM | 786-0 > 100 µM
